For assay [1], the target named is T1, cannabidiolic acid synthase (CBDAS); CBDA synthase (Cannabis sativa, UniProt A6P6V9).
T1 construct: native signal peptide removed, starts at residue 28 (NPREN...), pPICZalpha, secreted by Pichia pastoris X33, concentrated culture medium (not purified)
Nature of the assay: HPLC of product CBDA. The following applies: concentrated expression medium, 25 µM FAD, 5 mM MgCl2, 5 mM KCl, 50 mM Hepes pH 7.0, 30 °C, nonane overlay. It counts as biochemical.

For another assay, the target named is NphB (Streptomyces sp. CL190, UniProt Q4R2T2, A232S/Y288A). The settings on record: M30; otherwise same.

These results are taken from PMC6362252, “A cell-free platform for the prenylation of natural products and application to cannabinoid production” (Nature Communications, 2019).

On to `CCCCCc1cc(O)c(C/C=C(\C)CCC=C(C)C)c(O)c1C(=O)O` [cannabigerolic acid], for which the “HPLC of product CBDA” value in assay [1] is “we employed CBDA synthase to convert CBGA into CBDA and CBGVA into CBDVA”.
For orientation: Km means the substrate concentration at which the rate is half of its maximum. Regarding `CCCCCc1cc(O)cc(O)c1C(=O)O` [olivetolic acid], the Km at NphB came to 200 ± 40 µM.
